Values quoted from earlier work in US20170224670A1, “Drug Combination to Treat Melanoma” (Exelixis, Inc., priority 2014, published 2017).

Test system: BRAF mutation-associated melanomas
Settings: from initial use, patients taking the drug

CCCS(=O)(=O)Nc1ccc(F)c(C(=O)c2c[nH]c3ncc(-c4ccc(Cl)cc4)cc23)c1F [vemurafenib]
Time to development of resistance, on average: ≤ 7 months
